In patent US11040028B2, “Penicinotam derivative, preparation method and use thereof” (OCEAN UNIVERSITY OF CHINA, priority 2017, dated 2021):
Read-outs that look alike come from different tables or passages of the source.

Tests used:
Format in all cases: cell-based
BHK-21 cells = assay: Anti-fibrosis activity test: inhibition of BHK-21 cell proliferation (CCK-8); details: Mesocricetus auratus, BHK-21, 48 h
How it was run: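 Cells seeded at 2×10^4 cells/mL, allowed to adhere 24 hours, then exposed to graded compound concentrations in triplicate for 48 hours at 37° C, 5% CO2. CCK-8 added for 2 hours, absorbance read at 450 nm; inhibition versus blank control used to derive IC50. Pirfenidone served as positive control.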

[1] = test system: human lung fibroblasts HFL1; assay: Anti-fibrosis activity test: inhibition of proliferation of human lung fibroblasts HFL1 (CCK-8); details: Homo sapiens, HFL1, 48 h
How it was run: (§1)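 Using CCK-8 colorimetry (450 nm), the study assessed growth inhibition after 48 h compound exposure; plating density was 2×10^4 cells/mL with 24 h attachment beforehand. IC50 was calculated from (1−Ai/Ao)×100%.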

[2] = test system: human hepatic stellate cells LX-2; assay: Anti-fibrosis activity test: inhibition of proliferation of human hepatic stellate cells LX-2 (CCK-8); details: Homo sapiens, 48 h
How it was run: as §1

[3] = test system: human fibrosarcoma cells HT-1080; assay: Anti-fibrosis activity test: inhibition of proliferation of human fibrosarcoma cells HT-1080 (CCK-8); details: Homo sapiens, HT-1080, 48 h
How it was run: as §1

[4] = test system: human dermal fibroblasts CCC-ESF-1; assay: Anti-fibrosis activity test: inhibition of proliferation of human dermal fibroblasts CCC-ESF-1 (CCK-8); details: Fibroblast
How it was run: as §1

[5] = test system: human embryonic lung fibroblast IMR-90; assay: Anti-fibrosis activity test: inhibition of proliferation of human embryonic lung fibroblast IMR-90 (CCK-8)
How it was run: as §1

[6] = test system: cardiac fibroblast RAT-iCell-C002; assay: Anti-fibrosis activity test: inhibition of proliferation of cardiac fibroblast RAT-iCell-C002 (CCK-8); details: Cardiac fibroblast, 48 h
How it was run: as §1

NF-κB = assay: Immunological activity test: inhibition of NF-κB activity; details: initial concentration of 30 μM; a/b isomers given as first/second symbol; read-out: IC50 (μM), inhibitory activity against NF-κB
How it was run: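 Parthenolide as positive control; starting test concentration 30 μM; inhibition of NF-κB activity analysed further to yield IC50.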

[7] = test system: mouse macrophages (RAW264.7); assay: Lipopolysaccharide-induced NO secretion in macrophages (Griess); details: RAW264.7, LPS 1 μg/ml, a/b isomers given as first/second symbol, read-out: IC50 (μM), inhibition of lipopolysaccharide-induced NO secretion in macrophages
How it was run: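 Indomethacin and resveratrol served as positive controls while compounds were tested across concentrations on LPS-stimulated (1 μg/ml, 24 h) RAW264.7 cells. NO output was quantified colorimetrically (Griess, 548 nm).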

[8] = CCK-8, 48 hours after administration
[9] = human lung fibroblasts HFL1, CCK-8, 48 hours
[10] = human hepatic stellate cells LX-2, CCK-8, 48 hours
[11] = human fibrosarcoma cells HT-1080, CCK-8, 48 hours
[12] = human dermal fibroblasts CCC-ESF-1, CCK-8, 48 hours
[13] = human embryonic lung fibroblast IMR-90, CCK-8, 48 hours
[14] = cardiac fibroblast RAT-iCell-C002, CCK-8, 48 hours
[15] = Homo sapiens, CCC-ESF-1 cells, 48 h, CCK-8
[16] = Homo sapiens, IMR-90 cells, 48 h, CCK-8

| IC50 [3, 11] [mM] | IC50 (NF-κB) [µM] | IC50 ([7]; Mus musculus, RAW264.7, 24 h) [µM] | IC50 ([3]; HT-1080 cells, 48 h, CCK-8) [mM] | IC50 ([7]; 24 hours) [µM] | SMILES | IC50 (BHK-21 cells; [8]) [mM] | IC50 [1, 9] [mM] | IC50 [2, 10] [mM] | IC50 [4, 12] [mM] | IC50 [5, 13] [mM] | IC50 [6, 14] [mM] | IC50 (BHK-21 cells; 48 h, CCK-8) [mM] | IC50 ([1]; HFL1 cells, 48 h, CCK-8) [mM] | IC50 ([2]; LX-2, 48 h, LX-2 cells, CCK-8) [mM] | IC50 [4, 15] [mM] | IC50 [5, 16] [mM] | IC50 ([6]; RAT-iCell-C002 cells, CCK-8) [mM] |
| --- | --- | --- | --- | --- | --- | --- | --- | --- | --- | --- | --- | --- | --- | --- | --- | --- | --- |
| 0.05 to 5 | 1 to 10 | 0.1 to 1 | – | – | O=C1c2c(n(Cc3cc(C(F)(F)F)cc(C(F)(F)F)c3)c3ccccc3c2=O)-c2cccn21 [Compound 607a, 4-(3,5-Bis(trifluoromethyl)benzyl)-9H-pyrrolizino[1,2-b]quinoline-9,10(4H)-dione] | 0.05 to 5 | 0.05 to 5 | 0.05 to 5 | 0.05 to 5 | 0.05 to 5 | 0.05 to 5 | – | – | – | – | – | – |
| 0.05 to 5 | 1 to 10 | 1 to 10 | – | – | O=C1c2c(nc3ccccc3c2OCCO)-c2cccn21 [Compound 11b, 9-(2-hydroxyethoxy)-10H-pyrrolizino[1,2-b]quinolin-10-one] | 0.05 to 5 | 0.05 to 5 | 0.05 to 5 | 0.05 to 5 | 0.05 to 5 | 0.05 to 5 | – | – | – | – | – | – |
| 0.05 to 5 | 0.1 to 1 | 1 to 10 | – | – | O=C1c2c(n(CC(F)(F)F)c3ccccc3c2=O)-c2cccn21 [Compound 657a, 4-(2,2,2-Trifluoroethyl)-9H-pyrrolizino[1,2-b]quinoline-9,10(4H)-dione] | 0.05 to 5 | 0.05 to 5 | 0.05 to 5 | 0.05 to 5 | 0.05 to 5 | 0.05 to 5 | – | – | – | – | – | – |
| – | 0.1 to 1 | 1 to 10 | 0.05 to 5 | – | CCCOCCOc1c2c(nc3ccccc13)-c1cccn1C2=O [Compound 671b, 9-(2-propoxyethoxy)-10H-pyrrolizino[1,2-b]quinolin-10-one] | – | – | – | – | – | – | 0.05 to 5 | 0.05 to 5 | 0.05 to 5 | 0.05 to 5 | 0.05 to 5 | 0.05 to 5 |
| 0.05 to 5 | 1 to 10 | 1 to 10 | – | – | O=C1c2c(nc3ccccc3c2OCc2cccc(C(F)(F)F)c2)-c2cccn21 [Compound 598b, 9-((3-(trifluoromethyl)benzyl)oxy)-10H-pyrrolizino[1,2-b]quinolin-10-one] | 0.05 to 5 | 0.05 to 5 | 0.05 to 5 | 0.05 to 5 | 0.05 to 5 | 0.05 to 5 | – | – | – | – | – | – |
| 0.05 to 5 | 1 to 10 | 1 to 10 | – | – | N#Cc1cccc(Cn2c3c(c(=O)c4ccccc42)C(=O)n2cccc2-3)c1 [Compound 597a, 3-((9,10-Dioxo-9H-pyrrolizino[1,2-b]quinolin-4(10H)-yl)methyl)benzonitrile] | 0.05 to 5 | 0.05 to 5 | 0.05 to 5 | 0.05 to 5 | 0.05 to 5 | 0.05 to 5 | – | – | – | – | – | – |
| – | 1 to 10 | 1 to 10 | 0.05 to 5 | – | CCOCCCOc1c2c(nc3ccccc13)-c1cccn1C2=O [Compound 672b, 9-(3-ethoxypropoxy)-10H-pyrrolizino[1,2-b]quinolin-10-one] | – | – | – | – | – | – | 0.05 to 5 | 0.05 to 5 | 0.05 to 5 | 0.05 to 5 | 0.05 to 5 | 0.05 to 5 |
| – | 1 to 10 | 1 to 10 | 0.05 to 5 | – | Cc1cccc2[nH]c3c(c(=O)c12)C(=O)n1cccc1-3 [Compound 678a, 8-Methyl-9H-pyrrolizino[1,2-b]quinoline-9,10(4H)-dione] | – | – | – | – | – | – | 0.05 to 5 | 0.05 to 5 | 0.05 to 5 | 0.05 to 5 | 0.05 to 5 | 0.05 to 5 |
| 0.05 to 5 | 1 to 10 | 1 to 10 | – | – | O=C(O)c1ccccc1-c1ccc(COc2c3c(nc4ccccc24)-c2cccn2C3=O)cc1 [Compound 81b, 4′-(((10-oxo-10H-pyrrolizino[1,2-b]quinolin-9-yl)oxy)methyl)-[1,1′-biphenyl]-2-carboxylic acid] | 0.05 to 5 | 0.05 to 5 | < 0.05 | 0.05 to 5 | 0.05 to 5 | 0.05 to 5 | – | – | – | – | – | – |
| 0.05 to 5 | 1 to 10 | 1 to 10 | – | – | O=C1c2c(nc3ccccc3c2OCc2ccc(F)cc2)-c2cccn21 [Compound 588b, 9-((4-fluorobenzyl)oxy)-10H-pyrrolizino[1,2-b]quinolin-10-one] | 0.05 to 5 | 0.05 to 5 | 0.05 to 5 | 0.05 to 5 | 0.05 to 5 | 0.05 to 5 | – | – | – | – | – | – |
| 0.05 to 5 | 1 to 10 | 10 to 50 | – | – | O=C1c2c(nc3ccccc3c2OCc2ccccc2Br)-c2cccn21 [Compound 612b, 9-((2-bromobenzyl)oxy)-10H-pyrrolizino[1,2-b]quinolin-10-one] | 0.05 to 5 | 0.05 to 5 | 0.05 to 5 | 0.05 to 5 | 0.05 to 5 | 0.05 to 5 | – | – | – | – | – | – |
| – | 1 to 10 | – | – | 1 to 10 | O=C1c2c(nc3ccccc3c2OCc2ccc(-c3ccccc3)cc2)-c2cccn21 [Compound 674b] | – | – | – | – | – | – | – | – | – | – | – | – |
| – | 10 to 50 | – | – | 0.1 to 1 | N#Cc1c(N2CCNCC2)ccc2c(=O)c3c(n(Cc4ccc(F)cc4)c12)-c1cccn1C3=O [Compound 486a, 4-(4-Fluorobenzyl)-9,10-dioxo-6-(piperazin-1-yl)-4,10-dihydro-9H-pyrrolizino[1,2-b]quinoline-5-carbonitrile] | – | – | – | – | – | – | – | – | – | – | – | – |
| – | 1 to 10 | – | – | 1 to 10 | N#Cc1c(N2CCNCC2)ccc2c(OCc3ccc(F)cc3)c3c(nc12)-c1cccn1C3=O [Compound 486b, 9-((4-fluorobenzyl)oxy)-10-oxo-6-(piperazin-1-yl)-10H-pyrrolizino[1,2-b]quinoline-5-carbonitrile] | – | – | – | – | – | – | – | – | – | – | – | – |
| 5 to 20 | 10 to 50 | – | – | – | CC(C)n1c2c(c(=O)c3ccccc31)C(=O)n1cccc1-2 [Compound 5a, 4-Isopropyl-9H-pyrrolizino[1,2-b]quinoline-9,10(4H)-dione] | 5 to 20 | 0.05 to 5 | 0.05 to 5 | 0.05 to 5 | 0.05 to 5 | < 0.05 | – | – | – | – | – | – |
| 0.05 to 5 | 1 to 10 | – | – | – | N#Cc1ccc2nc3c(c(OCc4ccc(C(F)(F)F)cc4)c2c1)C(=O)n1cccc1-3 [Compound 627b, 10-oxo-9-((4-(trifluoromethyl)benzyl)oxy)-10H-pyrrolizino[1,2-b]quinoline-7-carbonitrile] | 0.05 to 5 | 0.05 to 5 | 0.05 to 5 | 0.05 to 5 | 0.05 to 5 | 0.05 to 5 | – | – | – | – | – | – |
| 0.05 to 5 | 10 to 50 | – | – | – | O=C1c2c(n(Cc3ccc(Cl)cc3)c3cc(C(F)(F)F)ccc3c2=O)-c2cccn21 [Compound 544a, 4-(4-Chlorobenzyl)-6-(trifluoromethyl)-9H-pyrrolizino[1,2-b]quinoline-9,10(4H)-dione] | < 0.05 | 0.05 to 5 | 0.05 to 5 | 0.05 to 5 | 0.05 to 5 | 0.05 to 5 | – | – | – | – | – | – |
| 0.05 to 5 | 1 to 10 | – | – | – | O=C1c2c(n(-c3ccc(Br)cc3)c3ccccc3c2=O)-c2cccn21 [Compound 64a, 4-(4-Bromophenyl)-9H-pyrrolizino[1,2-b]quinoline-9,10(4H)-dione] | 0.05 to 5 | 0.05 to 5 | 0.05 to 5 | 0.05 to 5 | 0.05 to 5 | 0.05 to 5 | – | – | – | – | – | – |

| SMILES | IC50 [3, 11] [mM] | IC50 (NF-κB) [µM] | IC50 ([7]; Mus musculus, RAW264.7, 24 h) [µM] | IC50 ([3]; HT-1080 cells, 48 h, CCK-8) [mM] | IC50 ([7]; 24 hours) [µM] | IC50 (BHK-21 cells; [8]) [mM] | IC50 [1, 9] [mM] | IC50 [2, 10] [mM] | IC50 [4, 12] [mM] | IC50 [5, 13] [mM] | IC50 [6, 14] [mM] | IC50 (BHK-21 cells; 48 h, CCK-8) [mM] | IC50 ([1]; HFL1 cells, 48 h, CCK-8) [mM] | IC50 ([2]; LX-2, 48 h, LX-2 cells, CCK-8) [mM] | IC50 [4, 15] [mM] | IC50 [5, 16] [mM] | IC50 ([6]; RAT-iCell-C002 cells, CCK-8) [mM] |
| --- | --- | --- | --- | --- | --- | --- | --- | --- | --- | --- | --- | --- | --- | --- | --- | --- | --- |
| O=C1c2c(nc3ccccc3c2OCCCCN2CCOCC2)-c2cccn21 [Compound 664b, 9-(4-morpholinobutoxy)-10H-pyrrolizino[1,2-b]quinolin-10-one] | 0.05 to 5 | 1 to 10 | 10 to 50 | – | – | 0.05 to 5 | 0.05 to 5 | 0.05 to 5 | 0.05 to 5 | 0.05 to 5 | 0.05 to 5 | – | – | – | – | – | – |
